Assay [1] addresses Cyclin-dependent kinase-like 2 (Homo sapiens, UniProt Q92772).
Description: Inhibition of human CDKL2 assessed as remaining activity by eurofins-cerep kinase profiler analysis
Assay [2] has as its target Cyclin-dependent kinase-like 3 (Homo sapiens, UniProt Q8IVW4).
Description: Inhibition of human CDKL3 assessed as remaining activity by eurofins-cerep kinase profiler analysis
Assay [3] addresses Cyclin-dependent kinase-like 5 (Homo sapiens, UniProt O76039).
Description: Inhibition of human CDKL5 assessed as remaining activity by eurofins-cerep kinase profiler analysis
Assay [4] addresses Dual specificity protein kinase CLK2 (Homo sapiens, UniProt P49760).
Description: Inhibition of human CLK2 assessed as remaining activity by eurofins-cerep kinase profiler analysis
The target of assay [5] is T1, Dual specificity protein kinase CLK3 (Homo sapiens, UniProt P49761).
Description: Inhibition of human CLK3 assessed as remaining activity by eurofins-cerep kinase profiler analysis
Assay [6] has as its target Homeodomain-interacting protein kinase 1 (Homo sapiens, UniProt Q86Z02).
Description: Inhibition of human HIPK1 assessed as remaining activity by eurofins-cerep kinase profiler analysis
The target in assay [7] is Homeodomain-interacting protein kinase 4 (Homo sapiens, UniProt Q8NE63).
Description: Inhibition of human HIPK4 assessed as remaining activity by eurofins-cerep kinase profiler analysis
For assay [8], the target named is cGMP-dependent protein kinase 2 (Homo sapiens, UniProt Q13237).
Description: Inhibition of human PRKG2 assessed as remaining activity by eurofins-cerep kinase profiler analysis
In assay [9] the target is Transcription initiation factor TFIID subunit 1-like (Homo sapiens, UniProt Q8IZX4).
Description: Inhibition of human TAF1L assessed as remaining activity by eurofins-cerep kinase profiler analysis
In assay [10] the target is T1, Dual specificity protein kinase CLK3. The settings on record: dose 10.0 µM.
Assay [11] concerns the target Myotonin-protein kinase (Homo sapiens) (UniProt Q09013). The settings on record: dose 10.0 µM.
The target of assay [12] is Casein kinase II subunit alpha (Homo sapiens) (UniProt P68400). The settings on record: dose 10.0 µM.
The target of assay [13] is Calcium/calmodulin-dependent protein kinase kinase 2 (Homo sapiens) (UniProt Q96RR4). As to conditions: dose 10.0 µM.
Sequence of Calcium/calmodulin-dependent protein kinase kinase 2 (Homo sapiens) (Q96RR4 2-588 limits assumed): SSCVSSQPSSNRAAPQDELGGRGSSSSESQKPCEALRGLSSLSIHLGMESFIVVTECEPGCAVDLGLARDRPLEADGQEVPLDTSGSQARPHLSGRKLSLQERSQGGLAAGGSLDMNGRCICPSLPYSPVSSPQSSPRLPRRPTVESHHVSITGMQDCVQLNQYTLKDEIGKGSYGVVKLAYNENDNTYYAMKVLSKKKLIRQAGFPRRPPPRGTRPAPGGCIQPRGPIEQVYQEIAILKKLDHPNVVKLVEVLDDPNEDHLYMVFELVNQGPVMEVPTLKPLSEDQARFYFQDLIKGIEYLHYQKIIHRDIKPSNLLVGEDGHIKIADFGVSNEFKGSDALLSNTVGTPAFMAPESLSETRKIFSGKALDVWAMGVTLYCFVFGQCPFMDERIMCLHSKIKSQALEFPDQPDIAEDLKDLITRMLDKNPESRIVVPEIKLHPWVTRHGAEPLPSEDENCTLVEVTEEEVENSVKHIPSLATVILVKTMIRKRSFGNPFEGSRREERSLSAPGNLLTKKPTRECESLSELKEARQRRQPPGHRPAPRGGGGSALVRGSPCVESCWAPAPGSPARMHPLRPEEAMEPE

Sequence of Casein kinase II subunit alpha (Homo sapiens) (P68400 whole entry, looked up): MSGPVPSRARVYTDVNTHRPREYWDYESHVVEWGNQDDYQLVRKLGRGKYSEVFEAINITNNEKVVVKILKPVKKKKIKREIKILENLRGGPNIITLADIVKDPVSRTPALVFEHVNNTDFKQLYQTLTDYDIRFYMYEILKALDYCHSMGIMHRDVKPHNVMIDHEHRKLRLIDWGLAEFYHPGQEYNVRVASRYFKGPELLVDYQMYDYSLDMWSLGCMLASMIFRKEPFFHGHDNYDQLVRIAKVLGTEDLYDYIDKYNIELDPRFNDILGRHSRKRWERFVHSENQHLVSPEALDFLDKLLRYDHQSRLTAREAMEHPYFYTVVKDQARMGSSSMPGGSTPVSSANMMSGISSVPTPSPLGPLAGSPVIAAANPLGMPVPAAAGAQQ
Sequence of Dual specificity protein kinase CLK2 (P49760 whole entry): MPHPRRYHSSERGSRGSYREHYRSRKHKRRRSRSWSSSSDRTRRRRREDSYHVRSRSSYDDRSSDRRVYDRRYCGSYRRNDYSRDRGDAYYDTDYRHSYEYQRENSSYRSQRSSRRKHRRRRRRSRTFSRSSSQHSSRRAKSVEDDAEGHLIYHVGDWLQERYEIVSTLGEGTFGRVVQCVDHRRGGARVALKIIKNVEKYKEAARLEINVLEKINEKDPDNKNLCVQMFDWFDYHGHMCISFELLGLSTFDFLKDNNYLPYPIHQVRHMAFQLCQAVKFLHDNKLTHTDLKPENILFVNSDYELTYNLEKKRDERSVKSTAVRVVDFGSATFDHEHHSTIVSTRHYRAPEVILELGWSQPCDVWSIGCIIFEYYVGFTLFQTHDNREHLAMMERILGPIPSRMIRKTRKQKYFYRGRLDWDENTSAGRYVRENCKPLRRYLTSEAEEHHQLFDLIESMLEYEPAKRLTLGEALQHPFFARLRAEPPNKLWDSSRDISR
Sequence of cGMP-dependent protein kinase 2 (Q13237 whole entry): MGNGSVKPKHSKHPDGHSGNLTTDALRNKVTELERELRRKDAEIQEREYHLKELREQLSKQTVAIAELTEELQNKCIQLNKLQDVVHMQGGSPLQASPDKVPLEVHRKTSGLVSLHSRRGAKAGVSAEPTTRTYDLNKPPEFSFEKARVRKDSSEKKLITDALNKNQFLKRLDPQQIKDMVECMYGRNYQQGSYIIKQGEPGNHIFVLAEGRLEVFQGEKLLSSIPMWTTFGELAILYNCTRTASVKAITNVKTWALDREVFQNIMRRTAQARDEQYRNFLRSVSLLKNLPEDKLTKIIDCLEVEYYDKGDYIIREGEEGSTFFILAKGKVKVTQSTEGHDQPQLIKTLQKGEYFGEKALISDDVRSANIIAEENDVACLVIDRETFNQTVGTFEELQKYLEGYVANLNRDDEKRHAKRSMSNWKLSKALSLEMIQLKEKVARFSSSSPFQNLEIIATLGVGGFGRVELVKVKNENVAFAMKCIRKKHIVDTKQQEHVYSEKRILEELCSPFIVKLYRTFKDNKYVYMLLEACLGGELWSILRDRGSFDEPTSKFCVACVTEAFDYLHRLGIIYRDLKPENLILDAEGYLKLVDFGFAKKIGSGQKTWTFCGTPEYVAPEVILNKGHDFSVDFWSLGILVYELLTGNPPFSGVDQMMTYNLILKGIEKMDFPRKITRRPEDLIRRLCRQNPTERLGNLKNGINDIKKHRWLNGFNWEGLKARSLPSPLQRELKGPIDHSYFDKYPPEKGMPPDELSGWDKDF
Sequence of Cyclin-dependent kinase-like 3 (Q8IVW4 whole entry): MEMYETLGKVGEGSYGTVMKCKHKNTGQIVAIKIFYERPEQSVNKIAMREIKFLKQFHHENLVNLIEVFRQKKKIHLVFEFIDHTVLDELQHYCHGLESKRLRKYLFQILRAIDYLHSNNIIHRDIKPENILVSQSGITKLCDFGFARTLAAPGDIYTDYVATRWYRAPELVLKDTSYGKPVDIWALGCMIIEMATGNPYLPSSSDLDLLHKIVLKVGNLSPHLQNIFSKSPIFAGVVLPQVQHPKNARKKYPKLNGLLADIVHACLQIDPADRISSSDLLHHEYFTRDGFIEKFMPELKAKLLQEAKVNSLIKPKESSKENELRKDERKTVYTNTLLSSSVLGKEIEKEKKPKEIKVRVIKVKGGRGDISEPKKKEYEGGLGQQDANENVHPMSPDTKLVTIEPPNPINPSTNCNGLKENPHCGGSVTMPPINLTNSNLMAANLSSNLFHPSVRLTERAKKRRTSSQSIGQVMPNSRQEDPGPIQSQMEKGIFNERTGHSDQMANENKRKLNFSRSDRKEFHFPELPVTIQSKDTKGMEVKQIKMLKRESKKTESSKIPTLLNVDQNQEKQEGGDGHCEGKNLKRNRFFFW
Sequence of Homeodomain-interacting protein kinase 4 (Q8NE63 whole entry): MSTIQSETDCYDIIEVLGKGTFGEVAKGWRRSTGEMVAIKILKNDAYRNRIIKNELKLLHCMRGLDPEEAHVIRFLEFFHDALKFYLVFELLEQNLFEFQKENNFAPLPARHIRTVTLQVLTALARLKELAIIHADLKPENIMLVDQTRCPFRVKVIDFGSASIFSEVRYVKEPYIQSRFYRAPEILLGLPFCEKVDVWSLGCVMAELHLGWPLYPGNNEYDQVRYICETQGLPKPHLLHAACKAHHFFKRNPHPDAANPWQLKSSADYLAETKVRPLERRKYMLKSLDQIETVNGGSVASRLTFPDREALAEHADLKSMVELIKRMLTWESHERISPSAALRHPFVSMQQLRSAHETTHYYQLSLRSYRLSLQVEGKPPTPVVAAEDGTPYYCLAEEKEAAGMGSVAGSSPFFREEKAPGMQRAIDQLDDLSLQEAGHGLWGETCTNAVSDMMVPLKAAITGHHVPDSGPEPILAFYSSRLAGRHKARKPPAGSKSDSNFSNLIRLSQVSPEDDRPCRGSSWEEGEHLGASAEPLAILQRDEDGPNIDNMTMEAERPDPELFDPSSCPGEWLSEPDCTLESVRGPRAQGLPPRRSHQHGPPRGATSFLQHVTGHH
Sequence of Myotonin-protein kinase (Homo sapiens) (Q09013 whole entry): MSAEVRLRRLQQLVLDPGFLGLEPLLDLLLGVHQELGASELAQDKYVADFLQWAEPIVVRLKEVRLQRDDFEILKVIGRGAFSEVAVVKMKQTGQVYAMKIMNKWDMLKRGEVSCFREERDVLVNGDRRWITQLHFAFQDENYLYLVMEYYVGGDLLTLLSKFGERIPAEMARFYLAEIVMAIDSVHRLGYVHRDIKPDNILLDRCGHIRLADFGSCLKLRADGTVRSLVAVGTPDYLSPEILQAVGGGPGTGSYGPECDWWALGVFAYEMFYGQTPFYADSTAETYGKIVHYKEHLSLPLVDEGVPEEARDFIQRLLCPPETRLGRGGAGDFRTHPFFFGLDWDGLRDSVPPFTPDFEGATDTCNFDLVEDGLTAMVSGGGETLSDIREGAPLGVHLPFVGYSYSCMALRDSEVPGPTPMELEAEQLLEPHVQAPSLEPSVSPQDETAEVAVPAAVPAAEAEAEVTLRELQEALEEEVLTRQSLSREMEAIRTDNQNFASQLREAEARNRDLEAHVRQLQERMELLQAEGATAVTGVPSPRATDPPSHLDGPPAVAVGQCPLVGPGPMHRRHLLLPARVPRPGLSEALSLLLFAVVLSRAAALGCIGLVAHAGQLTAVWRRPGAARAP
Sequence of Cyclin-dependent kinase-like 5 (O76039 whole entry): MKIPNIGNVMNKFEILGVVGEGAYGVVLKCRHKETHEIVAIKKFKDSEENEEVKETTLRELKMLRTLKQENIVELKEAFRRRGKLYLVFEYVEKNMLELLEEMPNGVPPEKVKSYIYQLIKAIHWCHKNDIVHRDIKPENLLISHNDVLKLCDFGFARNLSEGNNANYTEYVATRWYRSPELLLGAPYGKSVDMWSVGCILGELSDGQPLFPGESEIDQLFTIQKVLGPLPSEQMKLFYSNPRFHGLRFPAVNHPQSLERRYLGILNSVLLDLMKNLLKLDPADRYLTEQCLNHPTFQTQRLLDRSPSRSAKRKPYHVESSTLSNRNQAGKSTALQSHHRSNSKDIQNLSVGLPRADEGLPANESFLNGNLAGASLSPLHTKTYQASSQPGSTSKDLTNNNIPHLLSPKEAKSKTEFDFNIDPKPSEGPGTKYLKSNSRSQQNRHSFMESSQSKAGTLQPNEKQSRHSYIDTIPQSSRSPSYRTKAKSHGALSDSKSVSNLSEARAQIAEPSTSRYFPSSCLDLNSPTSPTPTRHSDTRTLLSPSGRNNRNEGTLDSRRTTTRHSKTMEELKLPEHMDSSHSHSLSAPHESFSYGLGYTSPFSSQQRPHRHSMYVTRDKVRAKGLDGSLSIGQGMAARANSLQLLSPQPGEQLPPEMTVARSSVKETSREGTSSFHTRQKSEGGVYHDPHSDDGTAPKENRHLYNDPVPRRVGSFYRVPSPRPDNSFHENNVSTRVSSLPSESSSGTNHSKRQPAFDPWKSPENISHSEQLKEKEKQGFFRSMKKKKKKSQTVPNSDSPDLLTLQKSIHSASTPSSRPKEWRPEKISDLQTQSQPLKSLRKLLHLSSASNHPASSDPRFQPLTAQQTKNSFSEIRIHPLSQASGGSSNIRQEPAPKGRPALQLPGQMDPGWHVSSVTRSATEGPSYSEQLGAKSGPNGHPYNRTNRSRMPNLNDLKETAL

Take `COC[C@@H](CC(C)C)NC1=N/C(=C\c2ccc3scnc3c2)C(=O)N1`: the 50% inhibitory concentration (IC50) (usually the concentration that inhibits the measured activity by half) was more than 1000 nM in [1]; more than 1000 nM in [2]; more than 10000 nM in assay [3]; more than 1000 nM in [4]; more than 1000 nM in assay [5]; more than 10000 nM in assay [6]. The IC50 is more than 10000 nM in assay [7], more than 10000 nM in [8] and more than 1000 nM in [9]. The ΔTm (as a rule, the shift of the melting midpoint relative to a reference) is 0.3 °C in assay [10], 1.1 °C in assay [11], 1.4 °C in assay [12] and -1.2 °C in assay [13].

These data come from ChEMBL document CHEMBL5375979, “Chemical, Biochemical, Cellular, and Physiological Characterization of Leucettinib-21, a Down Syndrome and Alzheimer's Disease Drug Candidate” (J Med Chem, 2023).
